From US20220183282A1, “Fatty Acid Derivatives For Improving The Effect Of Agrochemical Actives” (priority 2019, published 2022)

Tests used:
apple leaf cuticles [1] = experiment: Penetration of Milbemectin through isolated apple leaf cuticles in the presence of test substances; format: in vitro ADME; conditions: for Mean penetration for Milbemectin after time: Milbemectin 0.03 g/L in spray liquid
From the text: (§1) Surfactants can affect the absorption of (active) ingredients through membranes such as skin, films or the plant cuticle. As a “finite-dose” application, it is known for the single administration or application of a solution, cream, gel etc. to a membrane that the absorption of active ingredient can be influenced by some additives such as surfactants even after wetting.
(§2) The principle of the method has been published and described in detail e.g. in WO-A-2005/194844 or WO2017211572 A1). The leaf cuticles were enzymatically isolated in the manner described in the literature from apple leaves of orchard trees in a commercial stone fruit growing facility near Frankfurt am Main in 2017. The stomata-free cuticles were first dried under air and then installed into stainless steel diffusion cells. After application to the original upper side of the leaf and evaporation of the test liquid, i.e. of the spray liquids of the active ingredients with or without the inventive substances or comparative compositions, the diffusion cells were transferred into thermostated blocks and charged with aqueous liquid. The water used to make up the aqueous test liquids was local tap water (of known composition). At regular intervals, aliquot samples were taken and the proportion of active ingredient penetrated was determined by HPLC or alternatively by radio-chemical method where radio-labelled active ingredient was used as tracer to determine the concentration. During the experiment, the temperature in the system (block, diffusion cells, liquids, etc.) and the air humidity above the spray deposit on the cuticle were controlled. In the experiment, relative air humidity was constant throughout at 56% relative air humidity (air over supersaturated calcium nitrate) at a constant 10° C. or 25° C. The analytical determination by means of HPLC (1290 Infinity, Agilent) was effected thereafter with a Kinetex column 30×2, 1 mm, 2.6μ C18 100 A (Phenomenex), taking a 20 μL aliquot as injection volume at the specified times. In each case, the geometric mean values of the penetration for intact membranes at the mean measurement times are given.

apple leaf cuticles [2] = experiment: Penetration of lodosulfuron-methyl through isolated apple leaf cuticles in the presence of test substances; format: in vitro ADME; conditions: for Mean penetration for lodosulfuron-methyl after time: lodosulfuron-methyl 0.1 g/L in spray liquid, 10° C./61% rel. air humidity
From the text: as §1
as §2, with “In the experiment, relative air humidity was constant throughout at 56% relative air humidity (air over supersaturated calcium nitrate) at a constant 10° C. or 25° C.” left out

With `CCCCCCCCC(=O)OCCOCCOCCOCCOCCOCCOC` [A1, Pelargonic acid 6 EO ester methyl ether] the “Mean penetration for Milbemectin after time” value (apple leaf cuticles [1]; test substance 1.5 g/L, 1 day) was 4.3%, the “Mean penetration for Milbemectin after time” value (apple leaf cuticles [1]; test substance 1.5 g/L, 2 days) was 4.2% and the “Mean penetration for Milbemectin after time” value (apple leaf cuticles [1]; test substance 3.0 g/L, 1 day) was 4.7%. The “Mean penetration for Milbemectin after time” value (apple leaf cuticles [1]; test substance 3.0 g/L, 2 days) was 5.4%, the “uptake of the agrochemical active (Milbemectin), in words” value (apple leaf cuticles [1]; summary of Table 9, compared to the commercial formulation) was “strongly increases the uptake” and the “Mean penetration for lodosulfuron-methyl after time” value (apple leaf cuticles [2]; test substance 0.3 g/L, 1 day) was 1.0%. The “Mean penetration for lodosulfuron-methyl after time” value (apple leaf cuticles [2]; test substance 0.3 g/L, 2 days) was 1.5%, the “Mean penetration for lodosulfuron-methyl after time” value (apple leaf cuticles [2]; test substance 1.0 g/L, 1 day) was 2.3% and the “Mean penetration for lodosulfuron-methyl after time” value (apple leaf cuticles [2]; test substance 1.0 g/L, 2 days) was 3.3%. The “Mean penetration for lodosulfuron-methyl after time” value (apple leaf cuticles [2]; test substance 3.0 g/L, 1 day) was 7.6%, the “Mean penetration for lodosulfuron-methyl after time” value (apple leaf cuticles [2]; test substance 3.0 g/L, 2 days) was 8.8% and the “uptake of the active ingredient (lodosulfuron-methyl), in words” value (apple leaf cuticles [2]; summary of Table 6) was “strongly increases the uptake”.
